For two compounds, brain level, plasma level and Ki results are on record in paper PMC3388080 (PLoS ONE, 2012).

The nature of data set [1]: Plasma and brain exposure at the end of the LMA experiment. The class given is in vivo, rat. Conditions: 35 min. How it is done:
Locomotor activity (LMA) was evaluated at F. Hoffmann-La Roche as described previously. Male Wistar rats were placed for 2 weeks in a 12 h light/12 h dark cycle with light onset at 22∶00 (ZT0). […] Spontaneous LMA was recorded for a period of 30 min. At the end of the experiment, the brain and plasma were collected for determination of the drug exposure and brain/plasma concentration ratio.
The plasma and brain exposure of SB-334867 were measured at the end of the LMA experiment.

The next data set deals with T1, rHCRTR1 (Rattus norvegicus, UniProt P56718).
T1 construct: expressed in transfected cells; host or cells: HEK293 (transient transfection, pCI-Neo vector), membrane preparation
T1 sequence (P56718 1-416): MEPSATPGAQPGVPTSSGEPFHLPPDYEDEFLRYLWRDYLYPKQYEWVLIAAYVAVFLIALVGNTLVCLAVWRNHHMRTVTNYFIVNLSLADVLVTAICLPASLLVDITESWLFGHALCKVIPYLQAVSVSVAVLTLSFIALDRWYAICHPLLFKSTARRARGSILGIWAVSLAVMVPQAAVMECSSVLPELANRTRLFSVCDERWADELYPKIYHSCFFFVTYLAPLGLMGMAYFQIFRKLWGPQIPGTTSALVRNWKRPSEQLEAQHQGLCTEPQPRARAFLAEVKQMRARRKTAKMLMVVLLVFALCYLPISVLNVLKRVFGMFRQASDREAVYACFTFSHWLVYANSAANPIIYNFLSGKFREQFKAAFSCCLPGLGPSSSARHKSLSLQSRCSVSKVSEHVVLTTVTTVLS
The experiment in a line: Inhibition of [^3H]almorexant binding to HEK293-rHCRTR1 membranes. The text has this: The rat cDNAs encoding HCRTR1 (Accession No. P56718) and HCRTR2 (Accession No. P56719) were subcloned into pCI-Neo expression vectors (Promega, Madison, WI) and used to transfect HEK293 cells (acquired commercially from ATCC-LGC, Molsheim, France) as previously described.

A further data set concerns the target hHCRTR1. More on the design: method as in PMID 9821961. The following applies: 37°C; cited from earlier work.

For `Cc1nc2ccc(NC(=O)Nc3ccnc4cccnc34)cc2o1.Cl` [SB-334867, 1-(2-methylbenzoxazol-6-yl)-3-[1], [5]naphthyridin-4-yl-urea hydrochloride], the brain level in data set [1] (3 mg/kg ip) was 48 ng/mL; in data set [1] (10 mg/kg ip), 171 ng/mL; in data set [1] (30 mg/kg ip), 142 ng/mL. The values for the plasma level in data set [1] (3 mg/kg ip), in data set [1] (10 mg/kg ip) and in data set [1] (30 mg/kg ip) were 220 ng/mL, 718 ng/mL and 738 ng/mL, respectively.
In the case of `CNC(=O)[C@@H](c1ccccc1)N1CCc2cc(OC)c(OC)cc2[C@@H]1CCc1ccc(C(F)(F)F)cc1` [almorexant, (2R)-2-[(1S)-6,7-Dimethoxy-1-[2-(4-trifluoromethyl-phenyl)-ethyl]-3,4-dihydro-1H-isoquinolin-2-yl]-N-methyl-2-phenyl-acetamide], the Ki on rHCRTR1 was 7.1 ± 0.7 nM; on hHCRTR1 it was 4.7 nM.
